One data set concerns E. coli DH5α. The following applies: DH5α, 18 h. As to the method:
(§1) The minimum inhibitory concentration (MIC) of the peptides was carried out by way of example against gram(−) E. coli DH5α (and gram(+) Staphylococcus xylosus (both Deutsche Sammlung von Mikroorganismen and Zellkulturen, DSMZ) in a standardized microdilution method according to the general guidelines of the CLSI (Clinical and Laboratory Standards Institute 2006) and EUCAST (European Committee for Antimicrobial Susceptibility Testing of the European Society of Clinical Microbiology and Infectious Diseases 2003) with slight adaptations to the investigation of cationic antimicrobial peptides (Wiegand et al. 2008). The bacteria cells were cultivated in Mueller-Hinton-Boullion (MHB) to an optical density of 0.4 to 0.6 at 600 nm wavelength, corresponding to about 4·10^8 bacteria per ml. Then, the bacteria cultures were diluted to a bacteria concentration of about 1·10^5 bacteria per ml in sterile MHB. Using the peptides, series of 2-fold dilutions starting at 128 μM to the smallest dilution of 0.5 μM in MHB were prepared. The peptide dilutions were mixed with the dilute bacteria cultures in a […] in the chambers of a 96-well polypropylene microtiter plate (Starlab, Hamburg, Germany), so that the peptides were present in an end concentration between 64 μM and 0.25 μM at a bacteria concentration of 5·10^4 bacteria/ml. Sterile MHB served as negative control, and the positive control used as the corresponding bacteria concentration in MHB without the addition of peptide. The microtiter plates were incubated for 18 hours at 37° C. with shaking at 120 rpm in a climatically controlled chamber. After the incubation, the bacteria concentration was determined by renewed absorption measurement at a wavelength of 600 nm.

In a further data set the test system is Staphylococcus xylosus. As to conditions: 18 h. As to the method:
as §1

Data set [1] deals with human histiocytic lymphoma cell line U937. The experiment in a line: Cytotoxicity, direct membrane damage (CytoTox 96), LD50. It is filed as cell-based. As to conditions: U937, two hours at 37° C., 0.25-64 μM. As to the method:
The direct membrane damage was investigated with the help of the CytoTox 96 Non-Radioactive Cytotoxicity Assay (Promega, Mannheim, Germany). For this purpose, the cells were sedimented at 100 g for ten minutes at 4° C., and 50 μl of the resulting culture supernatant were added to 50 μl of the CytoTox substrate mix. After an incubation time of 30 minutes in the dark at room temperature, 50 μl of the CytoTox stopping solution were added to the sample and the absorption was measured at 490 nm. To determine the LD50 value, the measurement value of the negative control was deducted from the absorption values and divided by the measurement value of the permeabilization control. The calculated values were plotted graphically against the peptide concentration and fitted using the Origin pro 8.1 G Software according to a sigmoidal model and the LD50 values were ascertained from this. The calculation was carried out analogously to example 5 by reference to the solution of equation 5.1 for the case y=50, where y in this case corresponds to the relative cytotoxicity in percent and x corresponds to the peptide concentration in μM. Representative graphical evaluations of LD50 values are shown in FIG. 6 by reference to the measurement results for the reference peptides BMAP-27, protamine and KL-helix, and also the peptide O1 according to the invention.

Data set [2] shares this test system. The experiment in a line: Long-term growth inhibition, minimum toxic concentration (MTC). As to the method:
The cytotoxic potential of the antimicrobial peptides was determined by way of example by reference to the human histiocytic lymphoma cell line U937 (DSMZ). The influence of the peptides on the permeability of the cell membrane and their longer-term growth-inhibiting effect was investigated. 15 ml of RPMI 1640 medium with 2 mM glutamine and 10% FCS (Biochrom, Berlin, Germany) were inoculated with 1·10^5 cells per ml and cultivated for three days at 37° in T75 cell culture bottles (TPP, Trasadingen, Switzerland) with constant gassing with 5% CO2 in a climatically controlled chamber. The medium was admixed with 10 U/ml penicillin and […] streptomycin (both AppliChem, Darmstadt, Germany) to avoid bacterial contaminations, with no further antibiotics being added during the subsequent recultivation. Before each experiment, the cells were washed by centrifugation at 100 g for five minutes and subsequent resuspension in RPMI 1640 medium with 2 mM glutamine and 10% FCS in each case two times and adjusted to a concentration of 1·10^5 cells per ml. Finally, in each case 100 μl of the U937 cells were transferred to the reaction chambers of a sterile 96-well polypropylene microtiter plate and admixed with in each case 100 μl of a prediluted antimicrobial peptide in RPMI 1640 medium without antibiotic addition, such that end concentrations of in each case 5·10^4 cells per ml at peptide concentrations between 0.25 μM and 64 μM were present. The negative control used was samples without antimicrobial peptide, while Triton X-100 (AppliChem) was used in an end concentration of 5% as positive control for the permeabilization. The samples were cultivated for two hours at 37° C. and with continuous gassing with 5% CO2 in a climatically controlled chamber. Then, in each case 100 μl of each sample were removed and transferred to new sterile microtiter plates for determining the direct membrane damage. The remaining 100 μl of the samples were cultivated for at least four further days.
For this purpose, 10 μl of lysing solution were added to in each case 100 μl of cell suspension and incubated for 60 minutes at 37° C. Then, the cell culture supernatants were investigated as described above. The lowest peptide concentration at which complete suppression of the cell growth was established after four days was stipulated as the minimum toxic concentration (MTC).

No end group written: not given here. Some results are limits rather than exact numbers.

As for KRKILILIKR [C3], the “MIC E. coli” value with E. coli DH5α turned out to be 16 µM. In addition, in the data set on Staphylococcus xylosus, the “MIC S. xylosus” value is 8 µM. For the same substance, the “Toxicity LD50” value in data set [1] is >64 µM. For the same substance, the “Toxicity MTC (minimum toxic concentration)” value (“Toxicity MTC” for short) in data set [2] was >64 µM.

With KRKILILIKRK [M1], the “MIC E. coli” value with E. coli DH5α was 8 µM. For the same substance, the “MIC S. xylosus” value against Staphylococcus xylosus came out at 2 µM. For the same substance, the “Toxicity LD50” value in data set [1] is >64 µM. For the same substance, the “Toxicity MTC” value in data set [2] is >64 µM.

Take KRKILILIKRKR [C2]: in the data set with E. coli DH5α, the “MIC E. coli” value was 16 µM. In addition, the “MIC S. xylosus” value against Staphylococcus xylosus was 2 µM. Besides, in data set [1], the “Toxicity LD50” value is >64 µM. Further, the “Toxicity MTC” value in data set [2] was >64 µM.

Consider KRKILILIKRKRK [C1], for which the “MIC E. coli” value against E. coli DH5α came out at 16 µM. The “MIC S. xylosus” value in the data set on Staphylococcus xylosus was 1 µM. In data set [1], the “Toxicity LD50” value is 61 µM. Moreover, the “Toxicity MTC” value in data set [2] is >64 µM.

On to KRKILILILIKRK [H1], for which, in the data set with E. coli DH5α, the “MIC E. coli” value was 8 µM. Moreover, the “MIC S. xylosus” value in the data set on Staphylococcus xylosus was determined as 1 µM. The “Toxicity LD50” value in data set [1] is >64 µM. Moreover, in data set [2], the “Toxicity MTC” value is >64 µM.

With KRKILILILIL [M2], the “MIC E. coli” value against E. coli DH5α was >64 µM. In addition, the “MIC S. xylosus” value in the data set on Staphylococcus xylosus was >64 µM. The “Toxicity LD50” value in data set [1] was >64 µM. Also, in data set [2], the “Toxicity MTC” value is >64 µM.

Turning to KRKKRK [H6, KRKKRK], in the data set with E. coli DH5α, the “MIC E. coli” value was >64 µM. The “MIC S. xylosus” value against Staphylococcus xylosus was 16 µM. Besides, in data set [1], the “Toxicity LD50” value was >64 µM. In data set [2], the “Toxicity MTC” value is >64 µM.

Consider KRKLIKRK [H4], for which the “MIC E. coli” value in the data set with E. coli DH5α is >64 µM. Moreover, the “MIC S. xylosus” value against Staphylococcus xylosus was >64 µM. In addition, the “Toxicity LD50” value in data set [1] was >64 µM. Moreover, the “Toxicity MTC” value in data set [2] was >64 µM.

Consider KRKLILIKRK [H2], for which the “MIC E. coli” value with E. coli DH5α was >64 µM. Also, the “MIC S. xylosus” value with Staphylococcus xylosus is 16 µM. In data set [1], the “Toxicity LD50” value is >64 µM. Moreover, the “Toxicity MTC” value in data set [2] is >64 µM.

In the case of KRKLILKRILIKRK [A2], the “MIC E. coli” value with E. coli DH5α came out at 16 µM. Also, the “MIC S. xylosus” value against Staphylococcus xylosus worked out at 8 µM. Also, in data set [1], the “Toxicity LD50” value is >64 µM. For the same substance, in data set [2], the “Toxicity MTC” value is >64 µM.

Regarding KRKSGSGSKRK [M6], in the data set on E. coli DH5α, the “MIC E. coli” value is >64 µM. Besides, the “MIC S. xylosus” value in the data set on Staphylococcus xylosus is >64 µM. Moreover, the “Toxicity LD50” value in data set [1] is >64 µM. Besides, the “Toxicity MTC” value in data set [2] is >64 µM.

LIKRK [N8, LIKRK]: in the data set with E. coli DH5α, the “MIC E. coli” value is >64 µM. Besides, the “MIC S. xylosus” value against Staphylococcus xylosus is >64 µM. Besides, the “Toxicity LD50” value in data set [1] was >64 µM. Further, the “Toxicity MTC” value in data set [2] was >64 µM.

Turning to LILIKRK [N6, LILIKRK], the “MIC E. coli” value against E. coli DH5α was >64 µM. In the data set with Staphylococcus xylosus, the “MIC S. xylosus” value is >64 µM. In addition, the “Toxicity LD50” value in data set [1] is >64 µM. Further, in data set [2], the “Toxicity MTC” value was >64 µM.

For the substance LILKRKRKRKRILI [A5], in the data set with E. coli DH5α, the “MIC E. coli” value is >64 µM. Also, the “MIC S. xylosus” value against Staphylococcus xylosus was >64 µM. Besides, the “Toxicity LD50” value in data set [1] was >64 µM. In data set [2], the “Toxicity MTC” value was >64 µM.

As to RKILILIKRK [N3], the “MIC E. coli” value in the data set with E. coli DH5α turned out to be 16 µM. Moreover, the “MIC S. xylosus” value with Staphylococcus xylosus turned out to be 4 µM. Moreover, in data set [1], the “Toxicity LD50” value is >64 µM. The “Toxicity MTC” value in data set [2] is >64 µM.

Turning to RKLILKRKRILIKR [A3], in the data set with E. coli DH5α, the “MIC E. coli” value was found to be 16 µM. Besides, the “MIC S. xylosus” value with Staphylococcus xylosus was found to be 8 µM. Further, the “Toxicity LD50” value in data set [1] was >64 µM. For the same substance, in data set [2], the “Toxicity MTC” value was >64 µM.

RKRKILILIKRK [N2]: in the data set on E. coli DH5α, the “MIC E. coli” value came to 8 µM. Besides, the “MIC S. xylosus” value in the data set on Staphylococcus xylosus was determined as 2 µM. Also, the “Toxicity LD50” value in data set [1] is >64 µM. Besides, in data set [2], the “Toxicity MTC” value is >64 µM.

As to RKRKLILILIKRKR [A1], in the data set on E. coli DH5α, the “MIC E. coli” value came out at 8 µM. In the data set on Staphylococcus xylosus, the “MIC S. xylosus” value came out at 0.5 µM. The “Toxicity LD50” value in data set [1] was >64 µM. Besides, the “Toxicity MTC” value in data set [2] was >64 µM.

Take RRRVVVVVRRR [S5]: the “MIC E. coli” value against E. coli DH5α was 32 µM. In addition, in the data set with Staphylococcus xylosus, the “MIC S. xylosus” value came out at 2 µM. For the same substance, in data set [1], the “Toxicity LD50” value was >64 µM. For the same substance, the “Toxicity MTC” value in data set [2] is >64 µM.

The record behind these values is patent US10556926B2, “Synthetic artificial peptides with antimicrobial effect” (priority 2014, dated 2020).
